From patent US20220259556A1, “METHOD FOR OBTAINING IMMUNO-SUPPRESSIVE DENDRITIC CELLS” (Transimmune AG, priority 2013, published 2022)
Entries after “also recorded” stand apart in the source; their conditions may differ. Ends that are not written are not given here.

Columns and labels:
monocytes = experiment: Static co-cultures of platelets with monocytes; type: cell-based, human; conditions: static conditions, 18 hours
Protocol: Experiments involving co-cultures of monocytes with additional platelets were performed as described in the Overnight Culture section, with a few necessary modifications. Following Ficoll-Hypaque separation, mononuclear cells were resuspended in 30% AB serum/RMPI to a final concentration of 10×10^6 cells/ml, of which 1 ml was allocated to each well of a 16-well plate. An additional 1 ml of platelets (suspended in RPMI, at 2× the desired final concentration) or RPMI without platelets was then added to each well. To activate platelets, 500 μl containing 2 units of thrombin was added to half the wells, and 500 μl of RPMI was added to the others to balance the volume. Cells were then incubated as described previously.

platelets = experiment: Platelet adhesion studies in Vena8 flow chamber; type: cell-based, human
Protocol: For experiments not involving the collection and phenotyping of cells post-flow, Vena8 biochips (Cellix Ltd, Dublin, Ireland) were used to generate laminar flow. The volumetric flow path for a channel of the Vena8 biochips measured 20000×400×100 microns (length×width×height). Protein coating of these chips is described in the appropriate section below.
Platelet adhesion experiments were performed using the Vena8 flow chamber described above. Fibrinogen and fibronectin (Sigma) were dissolved in PBS to a final concentration of 200 mcg/ml. Channels of the Vena8 chips were incubated at room temperature in a humidified chamber for 2 hours with the protein solution, autologous plasma, or PBS alone. The channels were washed with 5× the volume RPMI. Platelet-rich-plasma was then perfused through the protein-coated channel at the indicated shear-stress, held constant. For each channel, still images were acquired exactly 90 seconds into the experiment at 4 pre-defined low power fields located along the flow path (fields were centered at 2500, 7500, 12500, and 17500 microns from the start point of infusion).
Some experiments involved pre-treating platelet-rich-plasma with protein fragments prior to infusion through the channels. Small RGD peptides, containing the amino-acid sequence Arg-Gly-Asp-Ser; DRG peptides, contain the amino-acid sequence Ser-Asp-Gly-Arg; or fragment 400-411 of fibrinogen, containing the amino-acid sequence His-His-Leu-Gly-Gly-Ala-Lys-Gln-Ala-Gly-Asp-Val, were incubated at a concentration of 2 mM with PRP for 20 minutes at room temperature. The PRP was then perfused through the channels as previously described.

MoDC = experiment: Immunophenotyping of MoDC (HLA-DR, CD80, CD83, CD86, intracellular GILZ); type: cell-based, human; conditions: product of 8-MOP and UVA exceeded 100; 24 hr after PUVA
Protocol: (§1) Lymphocytes were treated with 8-MOP (100 ng/mL) and UVA (1 J/cm^2), washed with PBS, and co-cultured in complete media at 37° C. and 5% CO2 with either PUVA-treated or untreated-MoDC in a ratio of 5 or 10 lymphocytes to 1 MoDC. MoDC treated for 24 hr with 100 nM dexamethasone (Sigma) served as the positive control group. After 24 hr, cells were harvested and MoDC were re-purified. […] CD11c^+ MoDC were re-plated at 0.5-1.0×10^6 cells/mL in complete media and stimulated with 100 ng/mL LPS (Sigma). 24 hr after LPS stimulation, cells were harvested for RNA isolation and immunophenotyping, and supernatants were collected for cytokine quantification.
Monoclonal antibodies included HLA-DR, CD80, CD83, CD3, CD86, CD14, CD11c and GILZ. Antibodies were obtained from Beckman-Coulter and eBioscience and were used at their pre-determined optimal dilutions. Apoptosis was assessed using the Annexin-V Apoptosis Detection Kit (eBioscience), with Annexin-V recognizing phosphatidylserine (PS) on the surface of apoptotic cells. 7-AAD substituted for PI as the cell viability dye. Cells displaying an Annexin-V^+/7-AAD^− phenotype were classified as early apoptotic cells, and cells displaying an Annexin-V^+/7-AAD^+ phenotype were classified as late apoptotic cells. Dual membrane and intracytoplasmic staining was performed using the IntraPrep fix and permeabilization kit (Beckman-Coulter). Background staining was established with appropriate isotype and fluorescence minus one controls. Immunofluorescence was analyzed using a FACSCalibur L (BD Biosciences) within 2 hr of fixation with 2% paraformaldehyde. A minimum of 10,000 events were collected for each group.

lymphocytes = experiment: Apoptosis of lymphocytes (Annexin-V/7-AAD); type: cell-based, human; conditions: 1 J/cm^2 and 100 ng/mL
Protocol: as §1
Monoclonal antibodies included HLA-DR, CD80, CD83, CD3, CD86, CD14, CD11c and GILZ. Antibodies were obtained from Beckman-Coulter and eBioscience and were used at their pre-determined optimal dilutions. Apoptosis was assessed using the Annexin-V Apoptosis Detection Kit (eBioscience), with Annexin-V recognizing phosphatidylserine (PS) on the surface of apoptotic cells. 7-AAD substituted for PI as the cell viability dye. […] Background staining was established with appropriate isotype and fluorescence minus one controls. Immunofluorescence was analyzed using a FACSCalibur L (BD Biosciences) within 2 hr of fixation with 2% paraformaldehyde. […]

GILZ = GILZ expression in plate-passed PBMC treated with 8-MOP and UVA; type: cell-based; conditions: monocytes physically activated by passage through device, then 8-MOP and UVA
Protocol: Monocytes were passed through a device derived from the Therakos system. The dimensions of the flow chamber were 30 mm width, 1600 mm length, and 1 mm height. In brief, a blood sample was spun at low speed through a Ficoll gradient to obtain e.g. 80 ml of sample with a concentration of peripheral blood mononuclear cells (PBMC) of e.g. 1.5*10^6 cells/ml. The chamber was pre-coated with platelets. The sample was passed through the chamber for 60 min at a flow rate of about 24 ml/min corresponding to a shear stress of about 0.13 Pa. The collected activated monocytes were spun at low speed and resuspended in a small volume of medium comprising 8-MOP and irradiated with […], incubated for a day and used for further analysis (Day 1PBMC+PP). As a control PBMCs were not passed through the device and incubated for a day (Day 1 PBMC). Further, PBMC were analyzed directly after harvest through a Ficoll gradient (Day0 PBMC). Day 1 PBMC+PP were then further treated with 8-MOP and UVA (PUVA). The cells and controls were then analyzed for expression of GILZ.

thrombin
Monocyte differentiation versus cultures with platelets not activated by thrombin (monocytes): did not cause a discernible difference

fibrinogen
Platelet adhesion to plates pre-coated with the protein (platelets; unactivated platelets in flow, wall shear stress 0.2 to 6.0 dyne/cm^2): highest concentrations of platelets adhered

HHLGGAKQAGDV [fragment 400-411 of fibrinogen]
Platelet adhesion to fibrinogen-coated plates (platelets; platelets (PRP) pre-incubated with 2 mM peptide for 20 minutes, flow, listed as gamma fragments): decreased

COc1c2occc2cc2ccc(=O)oc12 [8-MOP, 8-methoxypsoralen]
Reduction of CD80 cell surface expression (MoDC): 30%
Reduction of CD83 cell surface expression (MoDC): 31%
Reduction of CD86 cell surface expression (MoDC): 54%
Time to Annexin-V display by lymphocytes (lymphocytes): 2 h
GILZ expression / differentiation of activated monocytes (GILZ): can be channeled into immuno-suppressive dendritic cells; also recorded: increase of expression of GILZ

Arg-Gly-Asp-Ser (RGDS; printed: Arg-Gly-Asp-Ser) [RGD peptides, Small RGD peptides]
Platelet adhesion to fibronectin-coated plates (platelets; platelets (PRP) pre-incubated with 2 mM peptide for 20 minutes, flow): decreased
